The source of these data is US20130225694A1, “COMPOSITIONS AND METHODS OF INHIBITING RETINAL DEGENERATION” (Oklahoma Medical Research Foundation, priority 2012, published 2013).

Each structure is given as a SMILES string.

Data set [1] concerns rhodopsin. Kind of data set: Rhodopsin regeneration after bleach in rats, IP nitrone. It counts as in vivo, rat. The method, then:
FIG. 10 graphically illustrates the effects of three PBN analogs of rhodopsin regeneration. Rhodopsin content was measured as nmole/retina following the procedure as in Mandal et al. (J Biol. Chem. 2011. 286 (37):32491-501). After injection with PBN derivatives or vehicles (saline), rats were left in room light for 2 hours (light adapted or LA) and then moved to dark. At 2.5 hours dark adaptation (DA), retinas were harvested. DA-Control, Dark adapted (12 h) control retina without any treatment to show normal rhodopsin content.
Measurement of rhodopsin regeneration—To measure the effect of PBN on the rate of rhodopsin regeneration, dark-adapted rats were injected intraperitoneally with PBN (50 mg/kg) or PBS 0.5 hour prior to a 2 hour bleach in room light (˜400 lux). Immediately following the bleach (time=0 minutes), a group of PBN- and vehicle-treated rats were killed, and retinas were removed and snap frozen. The remaining rats were dark-adapted, and retinas were collected under dim red light at 45, 90, and 180 minutes after the bleach.
Rhodopsin measurements were performed as described previously (2,36) with slight modification. Briefly, under dim red light, each retina was homogenized in 450 μl of buffer containing 10 mM Tris-HCl (pH 7.4), 150 mM NaCl, 1 mM EDTA, 2% (w/v) octylglucoside, and 50 mM hydroxylamine. Homogenates were centrifuged at 16,000 g, and soluble lysates were scanned from 270-800 nm in a spectrophotometer (Ultrospec 3000 UV/Vis Spectrophotometer, GE Healthcare, Piscataway, N.J.). Samples were then bleached under room light for 10 minutes and scanned again. The difference spectra at 500 nm between pre- and post-bleached samples were used to determine rhodopsin content using a molar extinction coefficient of […] (37). The values were normalized to the total lysate volume, and data are presented as rhodopsin content/retina.

Data set [2] concerns rod photoreceptors. Put plainly: Recovery of rod photoresponses after bleaching (dark adaptation ERG) in rats. It counts as in vivo, rat. The settings on record: 50 mg/kg IP. The method, then:
Possible defects in the visual cycle were analyzed by measuring the time course of dark adaptation (recovery of rod photoreceptor sensitivity) following a bleaching light exposure. Rats were fully dark-adapted and injected intraperitoneally with PBN (50 mg/kg) or saline. Full-field scotopic ERGs for both eyes were recorded after 3 hours of PBN injection. A single test flash of 2.3 log cd·s/m^2 was presented to elicit the rod a-wave response under fully dark-adapted conditions. Rats were then exposed to a steady field of log 2.3 cd·s/m^2 for 2 minutes in the Ganzfeld dome to bleach rod photoreceptors. Immediately following the bleaching period (time=0 minutes) and every 10 minutes thereafter (time=10, 20, 30, 40, 50, and 60 minutes), the same test flash of 2.3 log cd·s/m^2 was presented. The a-wave responses at the indicated times after bleaching were normalized to the initial dark-adapted response for each rat.
Effect of PBN on the rate of recovery of rod photoresponses: dark adaptation ERG—The damaging effect of bright light requires a functional rhodopsin photopigment (23). It is well established that PBN protects against light damage (1), and the inventors previously speculated that PBN, as part of its protective mechanism, might down-regulate rhodopsin regeneration rate (2). […]

Data set [3] has as its target T1, chicken RPE65 (Gallus gallus, UniProt Q9YGX2).
T1 construct: made in house; host or cells: 293A cells infected with chicken RPE65 adenovirus; total lysate used
T1 sequence (Q9YGX2 1-533): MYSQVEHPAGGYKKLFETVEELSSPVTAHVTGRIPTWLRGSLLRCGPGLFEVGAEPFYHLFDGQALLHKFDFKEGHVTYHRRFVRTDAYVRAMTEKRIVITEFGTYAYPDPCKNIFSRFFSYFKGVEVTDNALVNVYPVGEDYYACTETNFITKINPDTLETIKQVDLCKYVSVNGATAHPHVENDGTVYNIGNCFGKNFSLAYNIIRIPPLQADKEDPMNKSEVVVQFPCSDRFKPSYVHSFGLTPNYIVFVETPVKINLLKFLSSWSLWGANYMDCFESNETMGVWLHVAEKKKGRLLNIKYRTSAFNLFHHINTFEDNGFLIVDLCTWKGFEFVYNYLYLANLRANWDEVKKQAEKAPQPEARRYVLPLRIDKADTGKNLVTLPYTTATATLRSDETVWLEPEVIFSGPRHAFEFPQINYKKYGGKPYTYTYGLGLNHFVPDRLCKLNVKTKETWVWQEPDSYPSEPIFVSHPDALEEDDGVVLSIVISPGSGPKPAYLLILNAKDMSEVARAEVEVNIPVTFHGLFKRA
Put plainly: Liposome-based isomerohydrolase assay with recombinant chicken RPE65. The format is biochemical.

As usually defined, the inhibition is the share of the control response that was lost under treatment. Higher therefore signals a strong effect. By Ki is commonly meant a measure of affinity in units of concentration, obtained from inhibition or displacement. Consider `CC(C)(C)/[N+]([O-])=C/c1ccccc1` [Compound 1, α-phenyl-N-tert-butyl nitrone], for which the “effect on rhodopsin regeneration” value in data set [1] (50 mg/kg IP, 2.5 hours in the dark (FIG. 10)) is recorded as “blocked rhodopsin regeneration significantly”. Besides, the “rhodopsin regenerated after bleach” value in data set [1] (50 mg/kg IP, 45 minutes in darkness after 2 h bleach) is “virtually no rhodopsin was regenerated”. The bleachable rhodopsin recovered in data set [1] (50 mg/kg IP, dark adaptation for 3 hours after 2 h bleach) is listed as about 30%. In addition, the inhibition at 50 mg/kg in data set [1] (Rattus norvegicus, rats, 50 mg/kg IP, 2 h room light then 2.5 h dark adaptation) turned out to be 83%. Besides, in data set [1] (fully dark-adapted rats, mean±SEM), the “rhodopsin content of rats maintained in darkness” value is 1.38±0.14 nmol/eye. Also, in data set [2] (2.3 log cd·s/m^2 test flash before bleach, n=4), the “fully dark-adapted a-wave response” value is recorded as −441.5±70.66 μV. For the same compound, the “recovery of the initial fully dark-adapted rod response” value in data set [2] (40 minutes after the bleaching illumination) was found to be 25%. In addition, the type of inhibition entry in data set [3] (Lineweaver-Burk, with and without 0.1 mM PBN) is on record as “uncompetitive inhibition”. Also, the inhibitory constant (Ki) in data set [3] (all-trans-retinyl palmitate liposomes, 0.1 mM PBN, read-out: Ki (inhibition constant, uncompetitive formula)) was found to be 53 ± 7 µM.
